# Measured values from patent US12239132B2, “Compounds and methods for increasing soil nutrient availability” (SOUND AGRICULTURE COMPANY, priority 2018, dated 2025).
# Legend:
# Azotobacter vinlandii = test: Acetylene reduction method to measure nitrogen fixation in Azotobacter vinlandii; format: cell-based; settings: increasing amounts of AB09, Burks-N media, 48 h growth, dose response
# Description: Azotobacter vinlandii is a model free-living nitrogen fixing bacteria, or diazotroph, commonly found in soils. The acetylene reduction technique was used to determine if the nitrogen fixation activity of A. vinlandii is altered due to AB09 treatment. The acetylene reduction technique relies on the non-specific activity of the nitrogenase enzyme (which is responsible for reducing atmospheric dinitrogen gas N2 to ammonia NH3), to reduce acetylene to ethylene. Acetylene and ethylene gases were detected and quantified by GC/MS.
# Liquid flask cultures of A. vinlandii were grown in nitrogen-free growth media (Burks-N) and supplemented with varying amounts of AB09 (0 ug/mL culture received a mock treatment of water). Samples were analyzed for acetylene reduction to ethylene after 48 h of growth (cell concentration was normalized prior to the addition of acetylene).
# Azotobacter vinlandii cultures starting from OD600=0.02 were grown in liquid N-free bacterial growth media (Burks-N) with varying amounts of AB09 shaking at 28 C. Three flasks of bacteria were grown for each concentration of AB09. After 48 h, cultures were normalized OD600=0.1 and 5 mL of the normalized culture was transferred to gas-tight autosampler vials. […] After 3 hours of incubation (with shaking at 28 C), the gas headspace of the vials was measured via GC/MS for acetylene and ethylene. […]
# soil consortia cultures = test: 16S microbiome analysis of soil cultures grown in nitrogen free media; format: cell-based; settings: Alpha soil culture, 25 ug/mL, 72 h, vs control
# Experimental: 16S microbiome analysis was performed on soil-inoculated cultures grown in nitrogen free media in order to compare the effects of AB09 treatment vs control. […] The increased abundance of these diazotrophs in response to AB09 is consistent with the increased nitrogenase activity observed in Table 1 for Alpha soil. […] Known nitrogen fixing bacteria are indicated with an asterisk (*). Soil inoculated cultures (from Alpha Ag soil culture from Table 1) experience an increase in the relative abundance of diazotrophs when treated with AB09. Soil from agricultural areas was air dried and sieved with a 2 mm sieve. Five hundred milligrams of dried, sieved soil was added to 50 mL of nitrogen free media (Burks-N) in a 250 mL baffled flask. AB09 was added to 25 ug/mL and water was added in equivalent amounts for controls. Flasks were topped with a foam plug and incubated at 30 C, shaking at 100 rpm. DNA was extracted from 250 ul of the soil culture after 72 h of growth using the Qiagen PowerSoil Pro Kit (Cat No. 47014). DNA was checked on a gel and Qubit for quality and concentration, respectively. Ten nanograms of DNA was used in the 16S barcoding kit (SQK-RAB204) with the MinION sequencer. Fastq files from MinKnow were uploaded to Epi2Me and the 16S Oxford Nanopore Technologies kit (SQK-RAB204) was selected. […] Read counts were normalized to the total number of reads with an identified barcode.
structure (smiles),measurement,setting,value
"CC1=CC(Oc2c(C)occc2=O)OC1=O (centres unmarked) [AB09, maltol lactone]",ethylene gas from acetylene reduction (nitrogenase activity),Azotobacter vinlandii,increased amounts of ethylene gas
same,abundance of nitrogen fixing bacteria Azotobacter chroococcum and Pseudomonas stutzeri,soil consortia cultures,increased the abundance
